US9005965B2, “Stem cells culture systems” (Hadasit Medical Research Services & Development Limited, priority 2004, dated 2015)
“Also recorded” adds a separate entry of the source.

Key:
Format in all cases: cell-based, human
[1] = system: cord-derived fibroblasts; experiment: Propagation of cord-derived feeders with FGF2 supplementation; settings: medium supplemented with FGF2; FIG. 16
Procedure: Term umbilical cord tissue was minced as above, and the small pieces of tissue were plated in the fibroblast culture medium, as described above. To promote the adherence of the tissue pieces to the culture dish, flasks were incubated upright overnight. Cells emanating from the tissue pieces were propagated as above.

[2] = system: hESC; experiment: hESC culture on dishes pre-coated with different matrices; FACS marker expression
Procedure: Human embryonic fibroblasts derived from umbilical cord as described herein or foreskin fibroblasts were used as feeders. The feeders were plated in tissue culture dishes precoated with 1 μg/cm^2 human Fibronectin (BD Biosciences, Bedford, Mass.) or 100 μg/ml recombinant Gelatin (FibroGen, SF). Mitotic inactivation was carried out by incubating the feeders 2.5 hours with Mitomycin-C (Kyowa, Tokyo). KO DMEM (Gibco), X-Vivo 10 (Biowhittaker, Maryland), or Cellgro Stem Cell Growth Medium (CellGenix Freiburg, Germany) were used as the basic media. They were supplemented with TCH (1-2%; Protide Pharmaceuticals, St. Paul, Minn.) or Nutridoma-CS (2%; Roche, Germany) as serum substitutes. The media were supplemented with 2 mM glutamine (Hyclone, Utah) and non-essential amino acids (NEAA, 1%; Hyclone Utah). HESC were split weekly with Ca/Mg^++-free PBS supplemented with 0.05% EDTA.
FACS analysis of marker expression was performed on hESC after disaggregation using Ca/Mg^++-free PBS supplemented with 0.05% EDTA. The cells were then washed with FACS media consisting of PBS supplemented with 1% BSA and 0.05% sodium azide. The single cell suspension was stained with anti-SSEA4 (1:100, mouse monoclonal IgG3, Developmental Studies Hybridoma Bank (DHSB), Iowa City, Iowa), and anti-Tra-1-60 (1:20, monoclonal mouse IgM, gift from Prof. P. Andrews), anti-Tra-1-81 (1:100, monoclonal mouse IgM, Chemicon International), anti-human Oct 4 (mouse monoclonal IgG2b, 1:50, Santa Cruz), and anti-SSEA1 (1:100, Chemicon). Control hESC were stained with the respective isotype control antibodies. Primary antibodies were detected with a FITC-labeled goat anti-mouse Ig (1:100, Dako).

[3] = system: hESC-derived EBs; experiment: EB formation in presence or absence of nicotinamide: morphology, size, cell number; settings: for number of cells versus controls: comparable number of starting cells
Procedure: (§1) Human ES cells were removed from the feeders by treatment with dispase (10 mg/ml; Gibco), and/or type IV collagenase (1 mg/ml; Gibco). The clusters of undifferentiated cells that were obtained were further triturated into smaller clumps within PBS. These clumps were cultured for various periods in suspension within bacteriological dishes precoated with 0.1% low melting temperature agarose in DMEM (Gibco), supplemented with 10-20% FCS (Biological Industries, Beit Haemek), 1 mM L-glutamine, 0.1 mM β-mercaptoethanol, 1% non-essential amino acid stock, 50 units/ml penicillin, 50 μg/ml streptomycin (all from Gibco Invitrogen Corporation products, USA) in the presence or absence of nicotinamide 10 mM (Sigma). In some experiments DMEM and FCS were replaced by 86% KO-DMEM and 14% KOSR or by Neurobasal medium supplemented by N2 (Gibco).

[4] = system: hESC-derived EBs; experiment: Neural precursor marker expression in EBs (FACS, indirect immunofluorescence)
Procedure: (§2) EBs were dissociated into smaller clusters mechanically with/without the aid of trypsin (0.025%, 3 mM EDTA in PBS) digestion. The small clusters of cells were plated on poly-D-lysine (30-70 kDa, 10 μg/ml; Sigma, St. Louis, Mo.) and laminin-coated (4 μg/ml; Sigma) glass coverslips and cultured for additional 3-5 weeks in the culture medium used for suspension culture of EBs or neural spheres. Differentiated cells within the outgrowth were fixed with 4% paraformaldehyde for 20 minutes at room temperature. Cell membranes were permeabilized with 0.2% Triton X100 (Sigma) in PBS for 5 minutes for immunostaining with ant-intracellular markers antibodies. The cells were incubated with the following primary antibodies: anti β-tubulin III (mouse monoclonal IgG2b, 1:2000, Sigma), anti human alphafetoprotein (mouse monoclonal IgG2a, 1:200, Sigma), anti human muscle actin (mouse monoclonal IgG1, 1:10, Dako) and anti human desmin (mouse monoclonal IgG1,κ, 1:10, Dako), anti-Pax6 (Developmental Studies Hybridoma Bank; mouse monoclonal IgG1, 1:100), anti-MITF (Lab Vision Corporation, Fremont, Calif.; mouse IgG1, 1:50), anti-RPE65 (Novus Biologicals, Littleton, Colo.; mouse IgG1, 1:300), anti-Bestrophin (Novus Biologicals, Littleton, Colo.; mouse IgG1, 1:150), anti-ZO-1 (Zymed Laboratories Inc., South San Francisco, Calif.; rabbit polyclonal, 1:10) and anti-CRALBP (kindly provided by John C. Saari, University of Washington, Seattle; rabbit polyclonal, 1:100).

[5] = system: hESC-derived EBs; experiment: Differentiation towards RPE (pigmented) cells within EBs
Procedure: as §1
Differentiation into neural spheres was conducted according to the published protocol (Itsykson, P., et al. Derivation of neural precursors from human embryonic stem cells in the presence of noggin. Mol Cell Neurpsci 30, 24-36 (2005). Spheres were dissociated mechanically by trituration. Pigmented clusters of cells within EBs, differentiating 8-10 weeks were mechanically dissected by glass micropipettes or scalpel blades.
as §2

[6] = system: hESC-derived EBs; experiment: Gene expression profile of EBs by affymetrix gene arrays
[7] = system: hESC-derived EBs; experiment: Immunocytochemical and RT-PCR analysis of EBs
Procedure: EBs that were developed 4 weeks in suspension culture in the presence and absence of nicotinamide (NA), were fixed in 4% paraformaldehyde at room temperature overnight. The EBs were then concentrated at the bottom of a centrifuge tube and embedded in agar. The agar blocks were dehydrated, and embedded in paraffin. 5-micron sections were immuno-stained with anti-human cytokeratin-8 and anti-α-fetoprotein (both at 1:50, monoclonal mouse IgG, DAKO). Primary antibody localization was performed using Picture™ plus kit (Zymed). For RT PCR analysis, total RNA was collected from EBs that were developed 4 weeks in suspension culture in the presence and absence of nicotinamide (NA). Total RNA was isolated using TRI REAGENT (Sigma) and converted into complementary cDNA with M-MLV reverse transcriptase (Promega). PCR was carried out using standard protocols with Taq DNA Polymerase (Promega). Amplification conditions were as follows: denaturation at 94° C. for 60 seconds, annealing at 55-60° C. for 60 seconds, and extension at 72° C. for 60 seconds. The number of cycles was 35 Primer sequences and lengths of amplified products were: […]

[8] = system: hESC; experiment: Suspension culture of hESC in NBN2 medium; settings: NBN2, in the presence of FGF2, 3 weeks
Procedure: In the course of the routine passaging procedure, HESC colonies were dissociated with 0.05% of EDTA for 7-10 min at 37°, or mechanically with the aid of collagenase IV (1 mg/ml, 120 min at 37°). Cell dissociation was promoted by gentle blowing of the medium with a 1 ml pipette tip towards the hESC colonies. The cells/cell-clusters were re-suspended in NBN2 medium (Neurobasal, N2 supplement 1:100, glutamine 2 mM, 50 units/ml penicillin, 50 μg/ml streptomycin) supplemented with bFGF 20 ng/ml, noggin 250 ng/ml, activin 25-50 ng/ml, fibronectin and laminin 5 ng/ml each, gelatin 0.001%. The suspension may be strained though 30-50 micron mesh to remove big clumps and transferred into tissue culture dishes (Costar®, Corning Inc., Corning, N.Y., USA) at a density of ˜0.7-1.2×10^6 cells/ml. Dead cells and their fragments were gradually removed during media refreshment and small transparent cell aggregates emerged from the 3rd-5th days of suspension culture. The cells proliferated as free-floating tiny clusters of 20-50 cells. Aggregation and overgrowth of clusters was prevented by their daily trituration with a 1000 μl pipettor tip. Alternatively, every 7 days clusters were dissociated with Ca/Mg-free PBS supplemented with 3 mM EDTA and 0.06% trypsin and the single cells were resuspended in fresh medium. […]

[9] = Cellgro medium with 2% TCH, matrix coating
[10] = in the presence of NA, indirect immunofluorescence
[11] = 4 weeks suspension culture, presence vs absence of NA

FGF2: growth factor supplementing the medium
proliferation of the fibroblasts [1]: could be augmented

gelatin
percentage of SSEA-4+ cells [2, 9]: 97%
percentage of Tra-1-60+ cells [2, 9]: 92%
percentage of SSEA-4+ hESC ([2]; foreskin feeder layer, KO DMEM+KO SR, plates precoated with the matrix): 91%

NC(=O)c1cccnc1 [NA, nicotinamide]
development of cystic structures in EBs ([3]; EBs cultured in the presence of RA and NA): infrequent; also recorded: blocked the effects of RA
morphology of differentiated cells within EBs ([3]; NA 10 mM): acquired the morphology of neural precursor cells
prolonged culture of EBs ([3]; NA treatment): 12 weeks
number of cells versus controls ([3]; after 2 weeks): 5.4 times
number of cells versus controls ([3]; after 4 weeks): 33 times
formation of cystic structures within EBs ([3]; chemically-defined medium (NBN2), 2-5 weeks): not observed
effect of RA on number of differentiated cells ([3]; medium with RA supplemented with NA): blocked
size of EBs (maximal diameter) versus EBs without NA ([3]; serum-free medium, two weeks of differentiation): 1.7 times
formation of cystic structures within EBs ([3]; serum-supplemented medium, NA 10 mM): not formed; also recorded: not observed
percentage of cells expressing PSA-NCAM ([4]; 6 weeks in the presence of NA, FACS): 85.5%
percentage of cells expressing nestin [4, 10]: 58.3%
percentage of cells expressing β-tubulin III [4, 10]: 67.8%
percentage of EBs that included clusters of pigmented cells ([5]; 5 weeks of differentiation in the presence of NA): 34%
percentage of EBs that included clusters of pigmented cells ([5]; 6 weeks of differentiation in the presence of NA): 59%
percentage of EBs that included clusters of pigmented cells ([5]; 12 weeks of differentiation in the presence of NA): 70%
expression of the RPE markers RPE65 and MITF A ([5]; Real Time PCR, 6 weeks, versus control EBs): significantly increased; also recorded: induction
percentage of cells within the EBs that were pigmented ([5]; after 6 weeks of differentiation): 9%
number of genes down-regulated [6, 11]: 630 genes
number of genes up- or down-regulated by at least two-fold [6, 11]: 1072 genes
number of genes up-regulated [6, 11]: 442 genes
expression of chordin-like-1 gene ([6]; gene arrays, confirmed by RT PCR): up-regulated
expression of LEFT A & B and PITX1 ([6]; gene arrays, 4 weeks): down regulated
expression of Wnt signaling pathway genes (Wnt4, Wnt 2B, FZD1, FZD2, FZD3, FZD10) ([6]; gene arrays, 4 weeks): induced
expression of ZIC1 ([6]; gene arrays, 4 weeks): remarkably up-regulated
expression of cytokeratins 7, 18, 19, 23 ([6]; gene arrays, 4 weeks): suppressed
expression of α-fetoprotein and cytokeratin-8 ([6]; gene arrays, 4 weeks): suppressed
expression of cytokeratin-8 within EBs ([7]; 4 weeks in the presence of NA, immunocytochemistry): not demonstrated; also recorded: only a few cells
expression of α-fetoprotein within EBs ([7]; differentiation in the presence of NA, immunocytochemistry and RT-PCR): not detected; also recorded: suppressed; also recorded: only a few cells

B1: noggin: BMPs antagonist, 250 ng/ml (protein, UniProt Q13253 28-232, looked up)
Noggin: QHYLHIRPAPSDNLPLVDLIEHPDPIFDPKEKDLNETLLRSLLGGHYDPGFMATSPPEDRPGGGGGAAGGAEDLAELDQLLRQRPSGAMPSEIKGLEFSEGLAQGKKQRLSKKLRRKLQMWLWSQTFCPVLYAWNDLGSRFWPRYVKVGSCFSKRSCSVPEGMVCKPSKSVHLTVLRWRCQRRGGQRCGWIPIQYPIISECKCSC
effect on survival/proliferation of hESC in suspension ([8]; FIG. 23B): could promote survival/proliferation

B2: activin A: TGFβ superfamily factor, 25-50 ng/ml (protein, UniProt P08476 311-426, looked up)
Inhibin beta A chain: GLECDGKVNICCKKQFFVSFKDIGWNDWIIAPSGYHANYCEGECPSHIAGTSGSSLSFHSTVINHYRMRGHSPFANLKSCCVPTKLRPMSMLYYDDGQNIIKKDIQNMIVEECGCS
modifications: Inhibin beta A chain
notes: TGFβ superfamily factor, 25-50 ng/ml
effect on differentiation of hESC in suspension ([8]; FIG. 23A): prevented differentiation
